Results on two molecules are retold here after US8715709B2, “Sustained release intraocular implants and methods for treating ocular neuropathies” (Allergan, Inc., priority 2004, dated 2014).

Where a name gives a salt, the structure may show the parent alone. Read-outs that look alike come from different tables or passages of the source.

For data set [1] the following is noted: aqueous / dissolution medium (0.9% saline), cited from earlier work.
Data set [2] in a line: in vivo. To be noted: rabbit. An excerpt: Sampling was done from the anterior chamber for the first five animals after 1 hr, 3 hr, 6 hr, 12 hr, and 24 hr, and from both the anterior chamber and posterior segment of the remaining five animals after 1 hr, 3 hr, 6 hr, 24 hr, and 48 hr. One animal was used for each time point.

For `CC(C)(C)NC[C@H](O)COc1nsnc1N1CCOCC1` [Timolol Maleate, (−)-1-(tert-butylamino)-3-[(4-morpholino-1,2,5-thiadiazo-3-yl)oxy]-2-propanol maleate, (1:1) salt], in data set [1] (listed as timolol maleate), the “solubility in aqueous medium (in words)” value was “high water solubility”. Further, in data set [2], the “clearance in the posterior segment compared with anterior chamber (in words)” value was “relatively slower clearance rate”; the half-life is approximately 1.43 h; the “levels in the anterior chamber from posterior segment bolus injection (in words)” value is “the levels were small and considered insignificant”.
As to `CC(C)(C)NC[C@H](O)COc1nsnc1N1CCOCC1` [Timolol freebase], in data set [1], the “solubility in aqueous medium (in words)” value is reported as “less soluble”.

Broadly, the half-life is how long it takes for the measured level to halve. High values mean slow decline, low ones rapid decline.
